Experimental data taken from ChEMBL document CHEMBL3856237, “Synthesis and antinociceptive activity of new 2-substituted 4-(trifluoromethyl)-5,6-dihydrobenzo[h]quinazolines” (Bioorg Med Chem Lett, 2016).
Active and inactive are the calls of the source.

Experiments:
Mus musculus [1] = assay: Antinociceptive activity in CFA-induced arthritic pain Swiss mouse model assessed as inhibition of mechanical hyperalgesia by measuring paw withdrawal threshold at 100 mg/kg administered via oral gavage measured at 2 hrs post dose by Von Frey filament assay relative to control; format: functional
Mus musculus [2] = assay: Antinociceptive activity in CFA-induced arthritic pain Swiss mouse model assessed as inhibition of mechanical hyperalgesia by measuring paw withdrawal threshold administered via oral gavage measured at 2 hrs post dose by Von Frey filament assay; format: functional; settings: for ED50: read-out: ID50 (the source's name); for minimal effective dose: read-out: MED
[3] = Solubility of the compound in DMSO; format: physicochemical
Mus musculus [4] = assay: Toxicity in Swiss mouse assessed as effect on forced locomotory activity at 100 mg/kg administered via oral gavage for 1 hr measured up to 4 mins post dose by rotarod test; format: organism-based; settings: in vivo
Mus musculus [5] = assay: Toxicity in Swiss mouse assessed as effect on spontaneous locomotory activity by measuring number of areas crossed at 100 mg/kg administered via oral gavage for 1 hr measured up to 5 mins post dose by open field test (reference value: 27 +/- 6 ); format: organism-based; settings: in vivo
Mus musculus [6] = assay: Antinociceptive activity in Swiss mouse assessed as inhibition of capsaicin induced nociception by measuring paw licking time at 100 mg/kg administered via oral gavage for 1 hr followed by capsaicin challenge measured for 5 mins post dose relative to control; format: functional
Mus musculus [7] = assay: Antinociceptive activity in CFA-induced arthritic pain Swiss mouse model assessed as inhibition of mechanical hyperalgesia by measuring paw withdrawal threshold at 100 mg/kg administered via oral gavage measured up to 2 hrs post dose by Von Frey filament assay; format: functional, organism-based
Mus musculus [8] = assay: Antinociceptive activity in CFA-induced arthritic pain Swiss mouse model assessed as inhibition of mechanical hyperalgesia by measuring paw withdrawal threshold at 300 mg/kg administered via oral gavage measured at 2 hrs post dose by Von Frey filament assay relative to control; format: functional
Mus musculus [9] = assay: Antinociceptive activity in CFA-induced arthritic pain Swiss mouse model assessed as inhibition of mechanical hyperalgesia by measuring paw withdrawal threshold at 100 mg/kg administered via oral gavage measured up to 4 hrs post dose by Von Frey filament assay; format: functional, organism-based

solubility [3] | SMILES | Imax (Mus musculus [1]) | ED50 (Mus musculus [2]) [mg/kg] | minimal effective dose (Mus musculus [2]) [mg/kg] | Activity (Mus musculus [4]) | Activity (Mus musculus [5]) | inhibition in vivo at 100 mg/kg (Mus musculus [6]) [%] | inhibition (Mus musculus [7]) | Imax (Mus musculus [8]) [%] | inhibition (Mus musculus [9])
Soluble | FC(F)(F)c1nc(-c2ccccc2)nc2c1CCc1ccccc1-2 | 64 - 71% | 241 | 100 | Non-Toxic | 25 | 65 | Active | – | –
Soluble | FC(F)(F)c1nc(-n2cccc2)nc2c1CCc1ccccc1-2 | – | – | – | Non-Toxic | 23 | 67 | – | – | –
– | Nc1nc2c(c(C(F)(F)F)n1)CCc1ccccc1-2 | – | – | – | Non-Toxic | 22 | – | – | – | –
– | CSc1nc2c(c(C(F)(F)F)n1)CCc1ccccc1-2 | – | – | – | Non-Toxic | 23 | – | – | – | –
Insoluble | FC(F)(F)c1ncnc2c1CCc1ccccc1-2 | – | – | – | – | – | – | – | – | –
– | CC(C(=O)O)c1cccc(C(=O)c2ccccc2)c1 (stereo unspecified) [KETOPROFEN] | 70% | 144 | 100 to 300 | Non-Toxic | 38 | 81 | – | 75 | Active
Insoluble | Cc1nc2c(c(C(F)(F)F)n1)CCc1ccccc1-2 | – | – | – | – | – | – | – | – | –
